System: Plasmodium berghei
Test: Luciferase/luciferin-expressing antifolate-resistant parasites were used to infect a culture of HepG2 cells that were pre-incubated with compounds. Infected hepatocytes emit light due to the luciferase reaction. Assay results are presented as the percent inhibition of light emission compared to control. […]
Format: functional
Conditions: sporozoite; for IC90: read-out: LUCIFERASE INFECTION ASSAY - IC90

## Cc1cc(C(=O)CSc2nc3ccccc3[nH]2)c(C)n1CC1CCCO1 (configuration not stated)
HEPG2TOX_HILL_SLOPE 3.03, HEPG2TOX_R_SQUARED 0.337, PBLUC_HILL_SLOPE 0.528, 1.10, PBLUC_R_SQUARED 0.856, 0.809, read-out: LUCIFERASE INFECTION ASSAY - IC50
  IC50: 0.144 µM
  IC90: 4.43 µM

## C[C@]12CC[C@H](O)C[C@H]1CC[C@@H]1C2CC[C@]2(C)[C@@H](C3=CC(=O)OC3)[C@@H](O)C[C@]12O (some centres not stated)
HEPG2TOX_HILL_SLOPE 3.04, HEPG2TOX_R_SQUARED 0.92, PBLUC_HILL_SLOPE 1.95, PBLUC_R_SQUARED 0.451, read-out: LUCIFERASE INFECTION ASSAY - IC50
  IC50: 2.7 µM
  IC90: 8.37 µM

## Cc1nnsc1-c1onc(C)c1C(=O)Nc1cc(Cl)cc(Cl)c1
HEPG2TOX_HILL_SLOPE 2.99, HEPG2TOX_R_SQUARED 0.625, PBLUC_HILL_SLOPE 10.3, PBLUC_R_SQUARED 0.237, read-out: LUCIFERASE INFECTION ASSAY - IC50
  IC50: 8.32 µM
  IC90: > 8.94 µM

## O=C(NNc1ncc(C(F)(F)F)cc1Cl)c1c(Cl)cccc1Cl
HEPG2TOX_HILL_SLOPE 3.04, HEPG2TOX_R_SQUARED 0.858, PBLUC_HILL_SLOPE 3.51, PBLUC_R_SQUARED 0.0313, read-out: LUCIFERASE INFECTION ASSAY - IC50
  IC50: 6.25 µM
  IC90: > 8.58 µM

## O=C(Nc1ccccc1C(=O)Nc1nnc(C(F)(F)F)s1)c1ccccc1Cl
HEPG2TOX_HILL_SLOPE 2.99, HEPG2TOX_R_SQUARED 0.762, PBLUC_HILL_SLOPE 9.09, PBLUC_R_SQUARED 0.594, read-out: LUCIFERASE INFECTION ASSAY - IC50
  IC50: 2.13 µM
  IC90: 2.71 µM

## COc1cccc(/C=C/c2nnc(O)c(C#N)c2C)c1
HEPG2TOX_HILL_SLOPE 3.05, HEPG2TOX_R_SQUARED 0.959, PBLUC_HILL_SLOPE 3.8, PBLUC_R_SQUARED 0.551, read-out: LUCIFERASE INFECTION ASSAY - IC50
  IC50: 3.79 µM
  IC90: 6.75 µM

## Clc1ccc(-c2csc3ncnc(Sc4nnnn4C4CC4)c23)cc1
HEPG2TOX_HILL_SLOPE 2.99, HEPG2TOX_R_SQUARED 0.963, PBLUC_HILL_SLOPE 2.19, PBLUC_R_SQUARED 0.132, read-out: LUCIFERASE INFECTION ASSAY - IC50
  IC50: 8.41 µM
  IC90: > 10 µM

## CCOc1ccc(/C=N/NC(=O)c2cc3c(s2)CCCC3)c(O)c1
HEPG2TOX_HILL_SLOPE 3.02, HEPG2TOX_R_SQUARED 0.79, PBLUC_HILL_SLOPE 4.8, PBLUC_R_SQUARED 0.349, read-out: LUCIFERASE INFECTION ASSAY - IC50
  IC50: 6.97 µM
  IC90: > 10 µM

## CCN1C(=O)N(CCCc2cccnc2)C(=O)C12CCN(Cc1cnc(-c3ccccc3)s1)CC2
HEPG2TOX_HILL_SLOPE 2.98, HEPG2TOX_R_SQUARED 0.92, PBLUC_HILL_SLOPE 12.2, PBLUC_R_SQUARED 0.164, read-out: LUCIFERASE INFECTION ASSAY - IC50
  IC50: 6.3 µM
  IC90: > 6.74 µM

## Cc1noc(CSc2nnc(Nc3ccc(OC(F)(F)F)cc3)s2)n1
HEPG2TOX_HILL_SLOPE 3.01, HEPG2TOX_R_SQUARED 0.966, PBLUC_HILL_SLOPE 1.72, PBLUC_R_SQUARED 0.424, read-out: LUCIFERASE INFECTION ASSAY - IC50
  IC50: 4.45 µM
  IC90: > 10 µM

## CN(C)c1ccc(CNc2nccc3nc(-c4ccc(F)c(F)c4)[nH]c23)cc1
HEPG2TOX_HILL_SLOPE 2.98, HEPG2TOX_R_SQUARED 0.951, PBLUC_HILL_SLOPE 0.962, PBLUC_R_SQUARED 0.864, read-out: LUCIFERASE INFECTION ASSAY - IC50
  IC50: 0.941 µM
  IC90: 9.24 µM

## O=C(Nn1cn[nH]c1=S)c1ccc2ccccc2n1
HEPG2TOX_HILL_SLOPE 3, HEPG2TOX_R_SQUARED 0.551, PBLUC_HILL_SLOPE 3.2, PBLUC_R_SQUARED 0.429, read-out: LUCIFERASE INFECTION ASSAY - IC50
  IC50: 5.8 µM
  IC90: > 10 µM

## c1ccc2c(CN3CCN(c4ncnc5sccc45)CC3)csc2c1
HEPG2TOX_HILL_SLOPE 3.07, HEPG2TOX_R_SQUARED 0.815, PBLUC_HILL_SLOPE 3.96, PBLUC_R_SQUARED 0.666, read-out: LUCIFERASE INFECTION ASSAY - IC50
  IC50: 6.85 µM
  IC90: > 10 µM

## Cc1ccc(Sc2ccc(NC(=O)C3CCN(C(=O)c4ccoc4)CC3)cc2)c(C)c1
HEPG2TOX_HILL_SLOPE 3.01, HEPG2TOX_R_SQUARED 0.581, PBLUC_HILL_SLOPE 14.8, 16.7, PBLUC_R_SQUARED 0.181, 0.0620, read-out: LUCIFERASE INFECTION ASSAY - IC50
  IC50: 9.11 µM
  IC90: 9.64 µM

## CC(C)(C)c1cc(NS(=O)(=O)c2cc(C(F)(F)F)cc(C(F)(F)F)c2)c(C#N)s1
HEPG2TOX_HILL_SLOPE 3.04, HEPG2TOX_R_SQUARED 0.973, PBLUC_HILL_SLOPE 26.7, PBLUC_R_SQUARED 0.729, read-out: LUCIFERASE INFECTION ASSAY - IC50
  IC50: 2.35 µM
  IC90: 2.55 µM

## Cc1ccccc1C(=O)Nc1nc2ccccn2c1C(=O)NC1CCCCC1
HEPG2TOX_HILL_SLOPE 2.99, HEPG2TOX_R_SQUARED 0.96, PBLUC_HILL_SLOPE 20.4, PBLUC_R_SQUARED 0.198, read-out: LUCIFERASE INFECTION ASSAY - IC50
  IC50: 7.88 µM
  IC90: > 8.77 µM

## CCN(CC)C(=O)c1ccc(Nc2nc(C(F)(F)F)nc3ccccc23)cc1
HEPG2TOX_HILL_SLOPE 3.04, HEPG2TOX_R_SQUARED 0.82, PBLUC_HILL_SLOPE 1.45, PBLUC_R_SQUARED 0.471, read-out: LUCIFERASE INFECTION ASSAY - IC50
  IC50: 5.81 µM
  IC90: > 10 µM

## CCc1cccc2c(C(=O)COC(=O)C34CC5CC(CC(O)(C5)C3)C4)c[nH]c12
HEPG2TOX_HILL_SLOPE 2.99, HEPG2TOX_R_SQUARED 0.981, PBLUC_HILL_SLOPE 3.51, PBLUC_R_SQUARED 0.785, read-out: LUCIFERASE INFECTION ASSAY - IC50
  IC50: 2.46 µM
  IC90: 4.59 µM

## Cc1nc2ccc(N/N=C3\C=CC(=O)c4ncccc43)cc2s1
HEPG2TOX_HILL_SLOPE 2.99, HEPG2TOX_R_SQUARED 0.974, PBLUC_HILL_SLOPE 13.8, PBLUC_R_SQUARED 0.408, read-out: LUCIFERASE INFECTION ASSAY - IC50
  IC50: 3.46 µM
  IC90: 4.05 µM

## O=C(Nc1nc2ccccc2[nH]1)c1oc2ccccc2c1CSCc1ccccc1
HEPG2TOX_HILL_SLOPE 3.05, HEPG2TOX_R_SQUARED 0.924, PBLUC_HILL_SLOPE 8.31, PBLUC_R_SQUARED 0.524, read-out: LUCIFERASE INFECTION ASSAY - IC50
  IC50: 3.92 µM
  IC90: 5.1 µM

## Cc1ccc(NC(=O)Nc2ccc3nc(Cc4ccccc4)nn3c2)cc1
HEPG2TOX_HILL_SLOPE 3.07, HEPG2TOX_R_SQUARED 0.95, PBLUC_HILL_SLOPE 55.2, PBLUC_R_SQUARED 0.375, read-out: LUCIFERASE INFECTION ASSAY - IC50
  IC50: 2.02 µM
  IC90: 2.11 µM

## Clc1ccc(SCc2cc(N3CCCCC3)nc(-c3ccccn3)n2)cc1
HEPG2TOX_HILL_SLOPE 3.02, HEPG2TOX_R_SQUARED 0.983, PBLUC_HILL_SLOPE 17.6, PBLUC_R_SQUARED 0.462, read-out: LUCIFERASE INFECTION ASSAY - IC50
  IC50: 2.35 µM
  IC90: 2.67 µM

## Cc1nccnc1-c1ccnn1C(=O)Nc1cc(Cl)cc(Cl)c1
HEPG2TOX_HILL_SLOPE 3.03, HEPG2TOX_R_SQUARED 0.982, PBLUC_HILL_SLOPE 8.5, PBLUC_R_SQUARED 0.804, read-out: LUCIFERASE INFECTION ASSAY - IC50
  IC50: 0.372 µM
  IC90: 0.481 µM

## Cc1cc(C(=O)Cn2nnc3ccccc3c2=O)c(C)n1-c1ccccc1
HEPG2TOX_HILL_SLOPE 3.03, HEPG2TOX_R_SQUARED 0.216, PBLUC_HILL_SLOPE 10.9, PBLUC_R_SQUARED 0.324, read-out: LUCIFERASE INFECTION ASSAY - IC50
  IC50: 0.0369 µM
  IC90: 0.0451 µM

## Cc1nc2n(C)c3ccccc3[n+]2c(C)c1C
HEPG2TOX_HILL_SLOPE 3.01, HEPG2TOX_R_SQUARED 0.767, PBLUC_HILL_SLOPE 4.79, PBLUC_R_SQUARED 0.113, read-out: LUCIFERASE INFECTION ASSAY - IC50
  IC50: 6.7 µM
  IC90: > 10 µM

## Cc1cccc(OC2=C(Cl)C(=O)c3ccccc3C2=O)c1
HEPG2TOX_HILL_SLOPE 2.98, HEPG2TOX_R_SQUARED 0.916, PBLUC_HILL_SLOPE 1.18, PBLUC_R_SQUARED 0.608, read-out: LUCIFERASE INFECTION ASSAY - IC50
  IC50: 5.41 µM
  IC90: > 11 µM

## COc1ccc(-c2cnc3ccc(-c4cccc(F)c4)nn23)cc1OC
HEPG2TOX_HILL_SLOPE 3.03, HEPG2TOX_R_SQUARED 0.965, PBLUC_HILL_SLOPE 7.81, PBLUC_R_SQUARED 0.531, read-out: LUCIFERASE INFECTION ASSAY - IC50
  IC50: 0.958 µM
  IC90: 1.27 µM

## COc1ccc(-c2cnc3cnc(-c4ccco4)cn23)cc1
HEPG2TOX_HILL_SLOPE 2.99, HEPG2TOX_R_SQUARED 0.923, PBLUC_HILL_SLOPE 3.57, PBLUC_R_SQUARED 0.717, read-out: LUCIFERASE INFECTION ASSAY - IC50
  IC50: 4.15 µM
  IC90: 7.67 µM

## Cc1nc2ncnn2c(Nc2cccc(Cl)c2C)c1Cl
HEPG2TOX_HILL_SLOPE 3, HEPG2TOX_R_SQUARED 0.869, PBLUC_HILL_SLOPE 3.03, PBLUC_R_SQUARED 0.114, read-out: LUCIFERASE INFECTION ASSAY - IC50
  IC50: 5.55 µM
  IC90: > 10.7 µM

## CN(CC(=O)Nc1ccccc1N1CCCCCC1)S(=O)(=O)c1ccccc1C#N
HEPG2TOX_HILL_SLOPE 3.04, HEPG2TOX_R_SQUARED 0.862, PBLUC_HILL_SLOPE 1.2, PBLUC_R_SQUARED 0.365, read-out: LUCIFERASE INFECTION ASSAY - IC50
  IC50: 9.69 µM
  IC90: > 10 µM

## COc1cc2c(C#N)c(N3CCN(c4ccccc4OC)CC3)nc(N)c2c(N)n1
HEPG2TOX_HILL_SLOPE 3.01, HEPG2TOX_R_SQUARED 0.942, PBLUC_HILL_SLOPE 1.46, PBLUC_R_SQUARED 0.909, read-out: LUCIFERASE INFECTION ASSAY - IC50
  IC50: 1.04 µM
  IC90: 4.7 µM
